Assay results reported in ChEMBL document CHEMBL4725268, “Anticonvulsant and analgesic in neuropathic pain activity in a group of new aminoalkanol derivatives” (Bioorg Med Chem Lett, 2020).
The source made the active and inactive calls. The rule behind the calls is not given here.

Assays:
[1] = Genotoxicity in Salmonella typhimurium TA98 assessed as number of revertant at 750 ug by AMES test (reference value: 8 to 8.3); assay type: toxicity, Salmonella enterica subsp. enterica serovar Typhimurium; settings: in vivo; dose 750 µg
[2] = Genotoxicity in Salmonella typhimurium TA98 assessed as mutagenic index at 75 ug by AMES test; assay type: toxicity, Salmonella enterica subsp. enterica serovar Typhimurium; settings: in vivo; dose 75 µg
[3] = Genotoxicity in Salmonella typhimurium TA98 assessed as number of revertant at 200 ug by AMES test (reference value: 8 to 8.3); assay type: toxicity, Salmonella enterica subsp. enterica serovar Typhimurium; settings: in vivo; dose 200 µg
[4] = molecular target: T1, 5-hydroxytryptamine receptor 1A (Homo sapiens) (UniProt P08908); assay: Binding affinity to 5-HT1A (unknown origin) at 10^-5 M; settings: dose 1.0 10^-5M
T1 sequence (whole entry): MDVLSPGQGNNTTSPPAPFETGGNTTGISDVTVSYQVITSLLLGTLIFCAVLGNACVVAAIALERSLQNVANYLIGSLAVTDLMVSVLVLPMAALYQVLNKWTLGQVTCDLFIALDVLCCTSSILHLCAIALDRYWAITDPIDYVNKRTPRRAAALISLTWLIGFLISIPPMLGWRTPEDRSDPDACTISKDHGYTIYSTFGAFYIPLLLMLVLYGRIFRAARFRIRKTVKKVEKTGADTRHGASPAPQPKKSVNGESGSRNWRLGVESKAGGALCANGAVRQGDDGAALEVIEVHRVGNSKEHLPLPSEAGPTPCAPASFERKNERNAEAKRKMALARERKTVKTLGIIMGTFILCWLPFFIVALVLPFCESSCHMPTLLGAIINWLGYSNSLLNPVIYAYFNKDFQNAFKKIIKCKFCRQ

[5] = Genotoxicity in Salmonella typhimurium TA98 assessed as mutagenic index at 500 ug by AMES test; assay type: toxicity, Salmonella enterica subsp. enterica serovar Typhimurium; settings: in vivo; dose 500 µg
in vitro [6] = settings: mouse, microsomes
Description: Metabolic stability in mouse microsome assessed as half life

Mus musculus [7] = assay: Anticonvulsant activity in ip dosed mouse assessed as protection against current-induced seizure by maximal electroshock seizure test; assay type: functional
[8] = Genotoxicity in Salmonella typhimurium TA100 assessed as number of revertant at 200 ug by AMES test (reference value: 64.3 to 130.7); assay type: toxicity, Salmonella enterica subsp. enterica serovar Typhimurium; settings: in vivo; dose 200 µg
in vitro [9] = settings: mouse, microsomes; remark: listed apart in the source
Description: Metabolic stability in mouse microsome assessed as intrinsic clearance

[10] = Genotoxicity in Salmonella typhimurium TA98 assessed as mutagenic index at 750 ug by AMES test; assay type: toxicity, Salmonella enterica subsp. enterica serovar Typhimurium; settings: in vivo; dose 750 µg
[11] = Genotoxicity in Salmonella typhimurium TA100 assessed as mutagenic index at 75 ug by AMES test; assay type: toxicity, Salmonella enterica subsp. enterica serovar Typhimurium; settings: in vivo; dose 75 µg
[12] = Genotoxicity in Salmonella typhimurium TA100 assessed as mutagenic index at 200 ug by AMES test; assay type: toxicity, Salmonella enterica subsp. enterica serovar Typhimurium; settings: in vivo; dose 200 µg
[13] = Genotoxicity in Salmonella typhimurium TA100 assessed as mutagenic index at 10 ug by AMES test; assay type: toxicity, Salmonella enterica subsp. enterica serovar Typhimurium; settings: in vivo; dose 10 µg
[14] = Protection index, ratio of TD50 for toxicity in ip dosed mouse to ED50 for anticonvulsant activity in ip dosed mouse; assay type: organism-based; settings: in vivo, read-out: PI
[15] = Genotoxicity in Salmonella typhimurium TA100 assessed as number of revertant at 500 ug by AMES test (reference value: 64.3 to 130.7); assay type: toxicity, Salmonella enterica subsp. enterica serovar Typhimurium; settings: in vivo; dose 500 µg
[16] = Genotoxicity in Salmonella typhimurium TA98 assessed as number of revertant at 500 ug by AMES test (reference value: 8 to 8.3); assay type: toxicity, Salmonella enterica subsp. enterica serovar Typhimurium; settings: in vivo; dose 500 µg
[17] = Genotoxicity in Salmonella typhimurium TA98 assessed as number of revertant at 10 ug by AMES test (reference value: 8 to 8.3); assay type: toxicity, Salmonella enterica subsp. enterica serovar Typhimurium; settings: in vivo; dose 10 µg
[18] = Genotoxicity in Salmonella typhimurium TA100 assessed as number of revertant at 10 ug by AMES test (reference value: 64.3 to 130.7); assay type: toxicity, Salmonella enterica subsp. enterica serovar Typhimurium; settings: in vivo; dose 10 µg
[19] = Genotoxicity in Salmonella typhimurium TA98 assessed as number of revertant at 75 ug by AMES test (reference value: 8 to 8.3); assay type: toxicity, Salmonella enterica subsp. enterica serovar Typhimurium; settings: in vivo; dose 75 µg
[20] = Genotoxicity in Salmonella typhimurium TA100 assessed as number of revertant at 75 ug by AMES test (reference value: 64.3 to 130.7); assay type: toxicity, Salmonella enterica subsp. enterica serovar Typhimurium; settings: in vivo; dose 75 µg
[21] = Genotoxicity in Salmonella typhimurium TA100 assessed as mutagenic index at 500 ug by AMES test; assay type: toxicity, Salmonella enterica subsp. enterica serovar Typhimurium; settings: in vivo; dose 500 µg
[22] = Toxicity in ip dosed mouse assessed as motor impairment by rotarod test; assay type: organism-based; settings: in vivo
[23] = Drug metabolism in mouse microsome assessed as formation of monohydroxylated metabolite; assay type: ADME; settings: microsomes
[24] = Genotoxicity in Salmonella typhimurium TA98 assessed as mutagenic index at 200 ug by AMES test; assay type: toxicity, Salmonella enterica subsp. enterica serovar Typhimurium; settings: in vivo; dose 200 µg
[25] = Genotoxicity in Salmonella typhimurium TA98 assessed as mutagenic index at 10 ug by AMES test; assay type: toxicity, Salmonella enterica subsp. enterica serovar Typhimurium; settings: in vivo; dose 10 µg
[26] = Toxicity in mouse assessed as lethality at 30 mg/kg, ip; assay type: organism-based; settings: in vivo
[27] = Toxicity in mouse assessed as lethality at 50 mg/kg, ip; assay type: organism-based; settings: in vivo
Mus musculus [28] = assay: Anticonvulsant activity in ip dosed albino mouse assessed as protection against 50 mA current-induced seizure by maximal electroshock seizure test; assay type: functional

## Cc1cccc(C)c1OCCOCCNC1CCC(O)CC1.Cl (centres undefined)
[1]
  Activity: 3
[2]
  Activity_index: 1
[3]
  Activity: 9.3
[4]
  Activity: inactive
[5]
  Activity_index: 0.8
In vitro [6]
  half-life: 1.46 h
Mus musculus [7]
  ED50: 33 mg/kg
[8]
  Activity: 55
In vitro [9]
  microsomal CLint: 19.8 µL/min/mg
[10]
  Activity_index: 0.4
[11]
  Activity_index: 4.3
[12]
  Activity_index: 0.8
[13]
  Activity_index: 3.1
[14]
  selectivity ratio: 3.99
[15]
  Activity: 274.3
[16]
  Activity: 6.7
[17]
  Activity: 8
[18]
  Activity: 226.7
[19]
  Activity: 8.3
[20]
  Activity: 312.3
[21]
  Activity_index: 3.8
[22]
  TD50: 132 mg/kg
[23]
  Drug metabolism: Metabolite_Detected
[24]
  Activity_index: 1.2
[25]
  Activity_index: 1

## Cc1cc(C)c(OCCCN[C@H]2CC[C@H](O)CC2)c(C)c1
[26]
  Activity: Toxic

## CC[C@@H](CO)NCCOCCOc1ccc(C)cc1C.Cl
Mus musculus [7]
  ED50: 40.5 mg/kg
[14]
  selectivity ratio: 2.33
[22]
  TD50: 94.4 mg/kg

## Cc1ccc(OCCCN2CCC(O)CC2)c(C)c1
[27]
  Activity: Non-Toxic

## CC(C)NCC(O)COc1cccc2ccccc12 (racemic) [PROPRANOLOL]
Mus musculus [28]
  ED50: 1.2 mg/kg

## CC(C)NC[C@@H](O)COc1cccc2ccccc12 [DEXPROPRANOLOL]
Mus musculus [28]
  ED50: 16 mg/kg

## CC(C)NC[C@H](O)COc1cccc2ccccc12 [LEVOPROPRANOLOL]
Mus musculus [28]
  ED50: 19.2 mg/kg

## O=C1NC(=O)C(c2ccccc2)(c2ccccc2)N1 [PHENYTOIN]
[14]
  selectivity ratio: 8.56
